“Also recorded” adds a separate entry of the source.
Assays:
Bmx [1] = target: T1, Bmx (Homo sapiens, UniProt P51813); format: cell-based; settings: 30 μM pre-incubation, 3 Gy
T1 construct: host or cells: HUVEC
T1 sequence (P51813 1-675): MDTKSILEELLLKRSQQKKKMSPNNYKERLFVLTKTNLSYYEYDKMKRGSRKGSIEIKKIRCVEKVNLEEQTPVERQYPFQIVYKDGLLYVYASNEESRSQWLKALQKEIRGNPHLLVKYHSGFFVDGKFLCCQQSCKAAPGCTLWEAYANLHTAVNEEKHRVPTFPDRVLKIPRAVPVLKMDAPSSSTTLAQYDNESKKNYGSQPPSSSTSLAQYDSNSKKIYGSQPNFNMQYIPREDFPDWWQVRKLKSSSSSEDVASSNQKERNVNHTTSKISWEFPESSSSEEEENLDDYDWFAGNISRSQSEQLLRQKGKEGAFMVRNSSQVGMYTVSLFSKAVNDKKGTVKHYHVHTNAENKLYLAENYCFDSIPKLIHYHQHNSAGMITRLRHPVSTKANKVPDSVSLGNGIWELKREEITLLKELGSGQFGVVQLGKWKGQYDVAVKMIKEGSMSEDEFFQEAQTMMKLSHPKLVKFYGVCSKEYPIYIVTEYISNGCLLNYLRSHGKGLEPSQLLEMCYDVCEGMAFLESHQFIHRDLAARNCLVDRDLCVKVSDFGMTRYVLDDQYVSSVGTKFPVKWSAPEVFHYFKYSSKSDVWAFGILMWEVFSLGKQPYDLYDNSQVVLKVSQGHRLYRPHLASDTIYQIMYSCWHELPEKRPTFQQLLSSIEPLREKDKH
Protocol: Immunoprecipitation and in vitro kinase assay. HUVECs of passage 3-6 were grown to 70-80% confluency and then serum starved for 5 hours. The cells were then treated with sham or 3 Gy irradiation. After treatment, the cells were incubated at 37° C. with 5% CO2 for the indicated times. For inhibition studies, inhibitor was added at a 1:1000 dilution 60 minutes prior to irradiation. Following incubation, the tissue culture dishes were placed on ice and washed twice with ice cold 1× Phosphate-buffered Saline (PBS) followed by lysis using 400 μM-PER containing protease and phosphatase inhibitors (Sigma-Aldrich Co.) for 5 minutes. The cells were scraped and transferred to Eppendorf tubes, vortexed for 20 seconds, and incubated on ice for 30 minutes. After clearing the lysate by centrifugation at 15,000 g for 15 minutes at 4° C., the supernatant was quantified for protein concentration using the bicinchoninic acid (BCA) method prior to immunoprecipitation. Immunoprecipitation was performed using the CATCH AND RELEASE® v 2.0 system (Upstate Group, LLC, Charlottesville, Va., United States of America) according to manufacturer's protocol with some modification.
Briefly, spin columns containing binding resin were prepared by washing twice with 1× wash buffer (2000 g/30 seconds). […] This was added to the capped spin column which was rotated end-over-end overnight at 4° C. […]

HUVEC [2] = experiment: Endothelial cell tubule formation assay on MATRIGEL; format: cell-based, human; settings: 30 μM plus 3 Gy, vs either treatment alone
Protocol: Endothelial cell tubule formation assay. HUVEC of passage 3-6 were grown to 70-80% confluency. Cells were then washed with 1×PBS and suspended by trypsinization. Cells were counted and adjusted to 2.5-5×10^4 cells/ml in media. 75 μl MATRIGEL™ (BD Biosciences) were plated into each well of a 96 well plate and allowed to polymerize at 37° C. Cell suspensions (200 μl; […]) were added to each well. After thirty minutes, DMSO control or LFM-A13 was added. Thirty minutes later, dishes were treated with sham or 3 Gy and were then incubated until tubules had formed in control plates (4-6 hours). Digital photographs were taken of individual wells and tubules were counted by an observer blinded to the treatment conditions. The mean and standard error were calculated (n=3).

Bmx [3] = target: T1, Bmx; settings: HUVEC, dose of 25 μM; cited from earlier work
[4] = test system: LLC hind limb tumor blood vessels; experiment: Tumor immunohistochemistry (anti-CD34) in hind limb xenograft; format: in vivo, C57BL/6 mice; settings: 50 mg/kg i.p. daily, 45 minutes before 3 Gy, five treatments
Protocol: Tumor immunohistochemistry. LLC's were subcutaneously injected into the hind limb of C57BL/6 mice to form xenografts. When tumors grew to 200 mm^3, (approximately 7 days) the mice were treated with five consecutive daily treatments of i.p. LFM-A13 followed 45 minutes later by 3 Gy irradiation using an 80 kVp superficial x-ray generator. Twelve hours following the last radiation treatment, mice were sacrificed and tumors were harvested, fixed in paraffin, and sectioned by the Vanderbilt University Immunohistochemistry Core Facility as described previously (see Cuneo et al., 2007). Immunostaining was with goat anti-CD34 (Santa Cruz Biotechnology) and microvascular photos were analyzed using IMAGE-PRO® software with pixel number quantified.

HUVEC [5] = experiment: Endothelial closure assay (migration across a gap); format: cell-based, human
Protocol: Endothelial closure assay. HUVEC of passage 3-6 were grown on glass slides and were subjected to gap formation as described previously (Cuneo et al., 2007). Cells were treated with LFM-A13 or DMSO control prior to 0 or 3 Gy and incubated for the indicated times. Photographs of cell defect and surrounding cells were taken and relative cell density within the defect was calculated as follows: (number of cells/original cell defect area)/(number of cells/surrounding area).

[6] = murine studies, previously published; cited from earlier work
HUVEC [7] = experiment: Clonogenic survival assay in HUVEC; format: cell-based, human; settings: 30 μM
Protocol: Clonogenic survival. LLC's or passage 3-6 HUVECs were grown to 70-80% confluency. Cells were washed with 1×PBS, trypsin suspended, and were counted and adjusted to specific densities for each condition. The cells were plated on tissue culture plates and allowed to attach for 4 hours. […] Media was changed after irradiation. 10-14 days after irradiation, the plates were fixed with 70% ethanol and stained with 1% methylene blue. Colonies were then counted using a dissection microscopy with positive colonies containing at least 50 cells. Surviving fraction (SF) was calculated by the equation (number of colonies formed/number of cells plated)/(number of colonies for sham irradiated group/number of cells plated). Dose enhancing ratios were calculated by dividing the dose (Gy) for radiation alone by the dose for radiation plus treatment (normalized for plating efficiency of treatment) for which a SF of 0.2 is achieved.

HUVEC [8] = experiment: Apoptosis assay, Annexin V/propidium iodide flow cytometry; format: cell-based, human; settings: 24 hours
Protocol: Apoptosis assays. HUVEC were grown to 70-80% confluency prior to treatment with LFM-A13 or DMSO control. Cells were then irradiated with 0 or 3 Gy and harvested 24 hours after irradiation. Annexin V-FITC Apoptosis Detection kit (BD PharMingen, San Diego, Calif., United States of America) was used to stain cells (propidium iodide (50 ng) and annexin V-FITC (5 ng) were added to 10^5 cells) for flow cytometry according to manufacturer's protocol. For each treatment, the percent of cells undergoing apoptosis (±SE) was calculated. Camptothecin (5 μmol/L) treatment for 6 hours served as positive control

LLC tumor vasculature = experiment: Tumor vascular window model; format: in vivo, C57BL/6 mice
Protocol: Tumor vascular window model. The tumor vascular window model technique is described in Edwards et al., 2002. Briefly, three mice for each group had tumors grown within a vascular window such that tumor vasculature could be visualized within window frames containing a coordinate system for serial photography. Animals were treated with LFM-A13 by i.p. injection 60 minutes prior to 2 Gy irradiation using an 80 kVp superficial X-ray machine (Pantak X-ray Generator; East Haven, Conn., United States of America). Serial color photographs were taken to document blood vessel appearance on days 0-7. Photographs were scanned and processed using ADOBE® PHOTOSHOP® software (Adobe Systems Inc., San Jose, Calif., United States of America) to mark the center of vessels, verified by an observer blinded to treatment groups. Vascular length density (VLD) was quantified for each microscopic field using IMAGE-PRO® Plus v. 5.1 software (Media Cybernetics, Inc. Silver Spring, Md., United States of America). The mean and standard error of VLD in each treatment group were calculated and plotted. All animals used were cared for according to Vanderbilt University's Institutional Animal Care and Use Committees guidelines.

LLC hind limb tumors = experiment: Tumor growth delay; format: in vivo, C57BL/6 mice; settings: 5 consecutive days
Protocol: Tumor growth delay. LLC's were subcutaneously injected into the hind limb of C57/BL6 mice to form xenografts. When tumors grew to 200 mm^3, (approximately 7 days) the mice were treated with five consecutive daily treatments of i.p. LFM-A13 followed 45 minutes later by 3 Gy irradiation using an 80 kVp superficial x-ray generator. Serial measurements of tumor dimensions were taken by caliper and tumor volume was calculated using the modified ellipsoid formula (length×width×depth)/2. The mean and standard error were plotted using Microsoft Excel software.

HUVEC [9] = experiment: Apoptosis assay, DAPI staining of nuclei; format: cell-based, human; settings: 30 μM plus 3 or 6 Gy, 24 hours
Protocol: HUVEC were also assayed for apoptosis using a 4′,6-Diamidino-2-phenylindole (DAPI) staining of the nuclei to identify cells undergoing morphological changes. […] Cells were returned to the incubator for an additional 24 hr prior to DAPI staining. Multiple high powered fields (at least 7) were examined by an observer who was blinded to the experimental conditions for each of the cultures. […] The mean and standard error were calculated for each treatment group.

[10] = test system: Lewis Lung Carcinoma (LLC) cell line; experiment: Clonogenic survival assay in LLC; format: cell-based; settings: prior to 0, 2, 4, or 6 Gy
Protocol: Clonogenic survival. LLC's or passage 3-6 HUVECs were grown to 70-80% confluency. Cells were washed with 1×PBS, trypsin suspended, and were counted and adjusted to specific densities for each condition. The cells were plated on tissue culture plates and allowed to attach for 4 hours. LFM-A13 or DMSO was added at a 1:1000 dilution followed 60 min later by 0, 2, 4 or 6 Gy. Media was changed after irradiation. 10-14 days after irradiation, the plates were fixed with 70% ethanol and stained with 1% methylene blue. Colonies were then counted using a dissection microscopy with positive colonies containing at least 50 cells. Surviving fraction (SF) was calculated by the equation (number of colonies formed/number of cells plated)/(number of colonies for sham irradiated group/number of cells plated). Dose enhancing ratios were calculated by dividing the dose (Gy) for radiation alone by the dose for radiation plus treatment (normalized for plating efficiency of treatment) for which a SF of 0.2 is achieved.

HUVEC [11] = experiment: In vitro studies disclosed herein, comparison of Tec family inhibitors; format: cell-based, human

SMILES	radiation-induced Bmx activation (autophosphorylation) (Bmx [1])	number of tubules formed, combination with 3 Gy (HUVEC [2])	VEGF induced signaling through Bmx inhibition (Bmx [3])	blood vessel formation (CD34 staining), combination with 3 Gy [4]	endothelial cell closure (relative cell density in gap), drug alone (HUVEC [5]; 30 μM alone, 12 hours and 24 hours, vs vehicle control)	endothelial cell closure, combination with 3 Gy (HUVEC [5]; 30 μM for 45 minutes prior to 3 Gy, 12 and 24 hours)	tolerability [6]	radiosensitization (surviving fraction, survival curve shift) (HUVEC [7]; 45 minutes prior to 0, 2, 4, or 6 Gy, colonies over 10 days)	dose enhancing ratio (DER) (HUVEC [7]; dose ratio at SF of 0.2)	apoptosis, combination with 3 Gy (HUVEC [8]; 30 μM plus 3 Gy)	early and late apoptosis, drug alone (HUVEC [8]; 30 μM, sham irradiation)	tumor vascular window blood vessels, drug alone (LLC tumor vasculature; 50 mg/kg i.p. alone)	tumor blood vessels (mean vascular length density), combination with 2 Gy (LLC tumor vasculature; single 50 mg/kg i.p. prior to 2 Gy)	tumor growth delay, combination with 3 Gy (LLC hind limb tumors; 50 mg/kg i.p. 45 minutes prior to 3 Gy)	tumor growth delay, drug alone (LLC hind limb tumors; 50 mg/kg i.p., sham irradiation)	percent of apoptotic cells, combination with irradiation (HUVEC [9])	clonogenic survival compared to DMSO control [10]	effectiveness relative to LFM-A13 (HUVEC [11])
C/C(O)=C(\C#N)C(=O)Nc1cc(Br)ccc1Br [LFM-A13, (2Z)-2-cyano-N-(2,5-dibromophenyl)-3-hydroxy-2-butenamide]	attenuated the activation of Bmx	significant reduction (p<0.005) in tubules formed	block VEGF induced signaling	most effective at attenuating blood vessel formation	minimal effect on attenuating endothelial cell closure	greater than additive effect	well-tolerated	radiosensitized HUVEC	1.47	statistically significant (p<0.001 vs. LFM-A13 or 3 Gy alone) increase in apoptosis	not capable of shifting cells into either early (Q4-1) or late (Q2-1) apoptosis	minimally inhibited	dramatic reduction in tumor blood vessels	statistically significant enhancement of growth delay; also recorded: more than additive	small growth delay	enhancement of apoptosis	no difference in clonogenic survival	–
CC1=C(O)C(=O)[C@@H]2O[C@@H]2C1=O [terreic acid]	–	–	–	–	–	–	–	–	–	–	–	–	–	–	–	–	–	at least as effective as LFM-A13

From US8129356B2, “Bmx mediated signal transduction in irradiated vascular endothelium” (Vanderbilt University, priority 2007, dated 2012)
